Assays:
[1] = test system: Botryotinia fuckeliana (Botrytis cinerea); assay: Botryotinia fuckeliana (Botrytis cinerea) / liquid culture (gray mould); format: cell-based; conditions: growth inhibition photometrically 3-4 days after application, read-out: control of Botryotinia fuckeliana
Method in brief: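 Conidia suspended in Vogels broth and added to compound dispensed from DMSO. Incubated at 24°C, with growth inhibition measured photometrically 3–4 days later.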

[2] = test system: Glomerella lagenarium (Colletotrichum lagenarium); assay: Glomerella lagenarium (Colletotrichum lagenarium) / liquid culture (anthracnose); format: cell-based; conditions: Colletotrichum orbiculare, growth inhibition photometrically 3-4 days after application, read-out: control of Glomerella lagenarium
Protocol: (§1) Example B3: Glomerella lagenarium (Colletotrichum lagenarium)/Liquid Culture (Anthracnose) Conidia of the fungus from cryogenic storage are directly mixed into nutrient broth (PDB potato dextrose broth). After placing a (DMSO) solution of test compound into a microtiter plate (96-well format), the nutrient broth containing the fungal spores is added. The test plates are incubated at 24° C. and the inhibition of growth is measured photometrically 3-4 days after application.

[3] = test system: Fusarium culmorum; assay: microbe, parasite or virus in culture; format: cell-based; conditions: read-out: control of Fusarium culmorum
[4] = test system: Monographella nivalis (Microdochium nivale); assay: Monographella nivalis (Microdochium nivale) / liquid culture (foot rot cereals); format: cell-based; conditions: growth inhibition photometrically 4-5 days after application, read-out: control of Monographella nivalis
Method in brief: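 Fungal conidia mixed directly into potato dextrose broth and added to test compound delivered in DMSO. Incubated at 24° C; growth inhibition read photometrically 4-5 days after application.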

[5] = test system: Mycosphaerella arachidis (Cercospora arachidicola); assay: Mycosphaerella arachidis (Cercospora arachidicola) / liquid culture (early leaf spot); format: cell-based; conditions: growth inhibition photometrically 4-5 days after application, read-out: control of Mycosphaerella arachidis
Protocol: as §1, with “B10: Mycosphaerella arachidis (Cercospora arachidicola)/Liquid” for “B3: Glomerella lagenarium (Colletotrichum lagenarium)/Liquid”, “(Early Leaf Spot)” for “(Anthracnose)”, “determined” for “measured”, “4-5” for “3-4”

[6] = test system: Sclerotinia sclerotiorum; assay: Sclerotinia sclerotiorum / liquid culture (cottony rot); format: cell-based; conditions: growth inhibition photometrically 3-4 days after application, read-out: control of Sclerotinia sclerotiorum
Protocol: Example B15: Sclerotinia sclerotiorum/Liquid Culture (Cottony Rot) Mycelia fragments of a newly grown liquid culture of the fungus are directly mixed into nutrient broth (PDB potato dextrose broth). After placing a (DMSO) solution of test compound into a microtiter plate (96-well format) the nutrient broth containing the fungal material is added. The test plates are incubated at 24° C. and the inhibition of growth is determined photometrically 3-4 days after application.

[7] = test system: Mycosphaerella graminicola (Septoria tritici); assay: Mycosphaerella graminicola (Septoria tritici) / liquid culture (Septoria blotch); format: cell-based; conditions: Zymoseptoria tritici, growth inhibition photometrically 4-5 days after application, read-out: control of Mycosphaerella graminicola
Method in brief: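 Conidia suspended in potato dextrose broth and added to test compound supplied in DMSO in 96-well plates. Incubated at 24 °C, and growth inhibition read photometrically 4-5 days after application.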

[8] = test system: Blumeria graminis f. sp. tritici (Erysiphe graminis f. sp. tritici); assay: Blumeria graminis f. sp. tritici / wheat / leaf disc preventative (powdery mildew on wheat); format: in vivo; conditions: foliar, wheat leaf segments, inoculated 1 day after application
Protocol: Example B4: Blumeria graminis f. Sp. Tritici (Erysiphe graminis f. Sp. Tritici)/Wheat/Leaf Disc Preventative (Powdery Mildew on Wheat) Wheat leaf segments cv. Kanzler are placed on agar in a multiwell plate (24-well format) and sprayed with the formulated test compound diluted in water. The leaf disks are inoculated by shaking powdery mildew infected plants above the test plates 1 day after application. The inoculated leaf disks are incubated at 20° C. and 60% rh under a light regime of 24 h darkness followed by 12 h light/12 h darkness in a climate chamber and the activity of a compound is assessed as percent disease control compared to untreated when an appropriate level of disease damage appears on untreated check leaf segments (6-8 days after application).

[9] = test system: Pyrenophora teres; assay: Pyrenophora teres / barley / leaf disc preventative (net blotch); format: in vivo; conditions: foliar, barley leaf segments, inoculated 2 days after application
Protocol: Example B14: Pyrenophora teres/Barley/Leaf Disc Preventative (Net Blotch) Barley leaf segments cv. Hasso are placed on agar in a multiwell plate (24-well format) and sprayed with the formulated test compound diluted in water. The leaf segments are inoculated with a spore suspension of the fungus 2 days after application. The inoculated leaf segments are incubated at 20° C. and 65% rh under a light regime of 12 h light/12 h darkness in a climate cabinet and the activity of a compound is assessed as disease control compared to untreated when an appropriate level of disease damage appears in untreated check leaf segments (5-7 days after application).

[10] = test system: Alternaria solani; assay: Alternaria solani / tomato / leaf disc (early blight); format: in vivo; conditions: foliar, tomato leaf disks, sprayed 2 days before inoculation, compared to untreated control
Protocol: Example B1: Alternaria solani/Tomato/Leaf Disc (Early Blight) Tomato leaf disks cv. Baby are placed on agar in multiwell plates (24-well format) and sprayed with the formulated test compound diluted in water. The leaf disks are inoculated with a spore suspension of the fungus 2 days after application. The inoculated leaf disks are incubated at 23° C./21° C.

[11] = test system: Phaeosphaeria nodorum (Septoria nodorum); assay: Phaeosphaeria nodorum (Septoria nodorum) / wheat / leaf disc preventative (glume blotch); format: in vivo; conditions: Parastagonospora nodorum, foliar, wheat leaf segments, inoculated 2 days after application
Protocol: Example B8: Phaeosphaeria nodorum (Septoria nodorum)/Wheat/Leaf Disc Preventative (Glume Blotch) Wheat leaf segments cv. Kanzler are placed on agar in a multiwell plate (24-well format) and sprayed with the formulated test compound diluted in water. The leaf disks are inoculated with a spore suspension of the fungus 2 days after application. The inoculated test leaf disks are incubated at 20° C. and 75% rh under a light regime of 12 h light/12 h darkness in a climate cabinet and the activity of a compound is assessed as percent disease control compared to untreated when an appropriate level of disease damage appears in untreated check leaf disks (5-7 days after application).

Compound	inhibition of growth at 20 ppm [1]	inhibition of growth at 20 ppm [2]	inhibition of growth at 20 ppm [3]	inhibition of growth at 20 ppm [4]	inhibition of growth at 20 ppm [5]	inhibition of growth at 20 ppm [6]	inhibition of growth at 20 ppm [7]	melting point	pest or weed control at 200 ppm [8]	pest or weed control at 200 ppm [9]	pest or weed control at 200 ppm [10]	pest or weed control at 200 ppm [11]
Cn1ncc(C(C)(CNC(=O)c2cc(-c3ccc(F)cc3F)on2)c2cccc(C#N)n2)c1Cl (centres unmarked) [Compound P-119, N-[2-(5-chloro-1-methyl-pyrazol-4-yl)-2-(6-cyano-2-pyridyl)propyl]-5-(2,4-difluorophenyl) isoxazole-3-carboxamide]	≥ 80%	≥ 80%	≥ 80%	≥ 80%	≥ 80%	≥ 80%	≥ 80%					
COc1ccc(C(C)(CNC(=O)c2cc(-c3ccc(F)cc3F)on2)c2cnn(C)c2)nc1Cl (centres unmarked) [Compound P-14, N-[2-(6-chloro-5-methoxy-2-pyridyl)-2-(1-methylpyrazol-4-yl)propyl]-5-(2,4-difluorophenyl) isoxazole-3-carboxamide]							≥ 80%	196 to 199 °C				
Cn1cc(C(C)(CNC(=O)c2cc(-c3cccn3C)on2)c2cccc(Cl)n2)cn1 (centres unmarked) [Compound P-81, N-[2-(6-chloro-2-pyridyl)-2-(1-methylpyrazol-4-yl)propyl]-5-(1-methylpyrrol-2-yl)isoxazole-3-carboxamide]	≥ 80%	≥ 80%		≥ 80%	≥ 80%		≥ 80%	111 to 113 °C				
CO/N=C(\C)c1ccnc(C(C)(CNC(=O)c2cc(-c3ccc(F)cc3F)on2)c2cnn(C)c2)c1 (centres unmarked) [Compound P-72, 5-(2,4-difluorophenyl)-N-[2-[4-[(E)-N-methoxy-C-methyl-carbonimidoyl]-2-pyridyl]-2-(1-methylpyrazol-4-yl)propyl]isoxazole-3-carboxamide]				≥ 80%				88 to 90 °C				
Cc1cc(-c2cc(C(=O)NCC(C)(c3cnn(C)c3)c3cccc(Cl)n3)no2)n(C)n1 (centres unmarked) [Compound P-85, N-[2-(6-chloro-2-pyridyl)-2-(1-methylpyrazol-4-yl)propyl]-5-(2,5-dimethylpyrazol-3-yl)isoxazole-3-carboxamide]		≥ 80%					≥ 80%	182 to 184 °C	≥ 80%	≥ 80%		
Cn1cc(C(C)(CNC(=O)c2nnc(-c3ccc(F)cc3F)o2)c2cccc(Cl)n2)cn1 (centres unmarked) [Compound P-101, N-[2-(6-chloro-2-pyridyl)-2-(1-methylpyrazol-4-yl)propyl]-5-(2,4-difluorophenyl)-1,3,4-oxadiazole-2-carboxamide]	≥ 80%	≥ 80%		≥ 80%	≥ 80%	≥ 80%	≥ 80%		≥ 80%	≥ 80%	≥ 80%	≥ 80%
Cn1ncc(C(C)(CNC(=O)c2nnc(-c3ccc(F)cc3F)s2)c2cccc(Cl)n2)c1Cl (centres unmarked) [Compound P-25, N-[2-(5-chloro-1-methyl-pyrazol-4-yl)-2-(6-chloro-2-pyridyl)propyl]-5-(2,4-difluorophenyl)-1,3,4-thiadiazole-2-carboxamide]	≥ 80%	≥ 80%	≥ 80%	≥ 80%	≥ 80%	≥ 80%	≥ 80%		≥ 80%	≥ 80%	≥ 80%	≥ 80%
Cn1cc(C(C)(CNC(=O)c2cc(-c3ccc(F)cc3F)on2)c2cccc(C3CC3)n2)cn1 (centres unmarked) [Compound P-102, N-[2-(6-cyclopropyl-2-pyridyl)-2-(1-methylpyrazol-4-yl)propyl]-5-(2,4-difluorophenyl) isoxazole-3-carboxamide]	≥ 80%	≥ 80%	≥ 80%	≥ 80%	≥ 80%	≥ 80%	≥ 80%			≥ 80%		≥ 80%
Cn1ncc(C(C)(CNC(=O)c2nnc(-c3ccc(F)cc3F)s2)c2cccc(C#N)n2)c1Cl (centres unmarked) [Compound P-118, N-[2-(5-chloro-1-methyl-pyrazol-4-yl)-2-(6-cyano-2-pyridyl)propyl]-5-(2,4-difluorophenyl)-1,3,4-thiadiazole-2-carboxamide]	≥ 80%	≥ 80%	≥ 80%	≥ 80%	≥ 80%	≥ 80%	≥ 80%					
Cn1cc(C(C)(CNC(=O)c2cc(-c3ccc(F)cc3F)on2)c2cc(C#N)ccn2)cn1 (centres unmarked) [Compound P-63, N-[2-(4-cyano-2-pyridyl)-2-(1-methylpyrazol-4-yl)propyl]-5-(2,4-difluorophenyl) isoxazole-3-carboxamide]							≥ 80%	156 to 158 °C		≥ 80%		
Cn1cc(C(C)(CNC(=O)c2nc(-c3ccc(F)cc3F)no2)c2cccc(Cl)n2)cn1 (centres unmarked) [Compound P-84, N-[2-(6-chloro-2-pyridyl)-2-(1-methylpyrazol-4-yl)propyl]-3-(2,4-difluorophenyl)-1,2,4-oxadiazole-5-carboxamide]	≥ 80%	≥ 80%	≥ 80%	≥ 80%	≥ 80%	≥ 80%	≥ 80%		≥ 80%	≥ 80%	≥ 80%	≥ 80%
COc1cnc(Cl)nc1C(C)(CNC(=O)c1cc(-c2ccc(F)cc2F)on1)c1cnn(C)c1 (centres unmarked) [Compound P-65, N-[2-(2-chloro-5-methoxy-pyrimidin-4-yl)-2-(1-methylpyrazol-4-yl)propyl]-5-(2,4-difluorophenyl) isoxazole-3-carboxamide]								145 to 151 °C				

From patent publication US20240343717A1, “MICROBIOCIDAL PYRAZOLE DERIVATIVES” (SYNGENTA CROP PROTECTION AG, priority 2021, published 2024)
